Experimental data from PubChem BioAssay (NCI).
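48-hour exposure; five concentrations; linearly interpolated endpoints. GI50 is the concentration that inhibits growth by half. TGI: total growth inhibition.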

Columns and labels:
Assay in all cases: NCI-60 cell line screen, 48 h
786-0 renal = test system: 786-0 renal
A498 renal = test system: A498 renal
A549 NSCLC = test system: A549 NSCLC
ACHN renal = test system: ACHN renal
BT-549 breast = test system: BT-549 breast
CAKI-1 renal = test system: CAKI-1 renal
CCRF-CEM leukemia = test system: CCRF-CEM leukemia
COLO 205 colon = test system: COLO 205 colon
DU-145 prostate = test system: DU-145 prostate
EKVX NSCLC = test system: EKVX NSCLC
HCC-2998 colon = test system: HCC-2998 colon
HCT-116 colon = test system: HCT-116 colon
HCT-15 colon = test system: HCT-15 colon
HL-60(TB) leukemia = test system: HL-60(TB) leukemia
HOP-62 NSCLC = test system: HOP-62 NSCLC
HOP-92 NSCLC = test system: HOP-92 NSCLC
HS 578T breast = test system: HS 578T breast
HT29 colon = test system: HT29 colon
IGROV1 ovarian = test system: IGROV1 ovarian
K-562 leukemia = test system: K-562 leukemia
KM12 colon = test system: KM12 colon
LOX IMVI melanoma = test system: LOX IMVI melanoma
M14 melanoma = test system: M14 melanoma
MALME-3M melanoma = test system: MALME-3M melanoma
MCF7 breast = test system: MCF7 breast
MDA-MB-231 breast = test system: MDA-MB-231 breast
MDA-MB-435 = test system: MDA-MB-435
MOLT-4 leukemia = test system: MOLT-4 leukemia
NCI-H226 lung = test system: NCI-H226 lung
NCI-H23 lung = test system: NCI-H23 lung
NCI-H460 lung = test system: NCI-H460 lung
NCI-H522 lung = test system: NCI-H522 lung
NCI/ADR-RES ovarian = test system: NCI/ADR-RES ovarian
OVCAR-3 ovarian = test system: OVCAR-3 ovarian
OVCAR-4 ovarian = test system: OVCAR-4 ovarian
OVCAR-5 ovarian = test system: OVCAR-5 ovarian
OVCAR-8 ovarian = test system: OVCAR-8 ovarian
PC-3 prostate = test system: PC-3 prostate
RPMI-8226 leukemia = test system: RPMI-8226 leukemia
RXF 393 renal = test system: RXF 393 renal
SF-268 CNS = test system: SF-268 CNS
SF-295 CNS = test system: SF-295 CNS
SF-539 CNS = test system: SF-539 CNS
SK-MEL-2 melanoma = test system: SK-MEL-2 melanoma
SK-MEL-28 melanoma = test system: SK-MEL-28 melanoma
SK-MEL-5 melanoma = test system: SK-MEL-5 melanoma
SK-OV-3 ovarian = test system: SK-OV-3 ovarian
SN12C renal = test system: SN12C renal
SNB-19 CNS = test system: SNB-19 CNS
SNB-75 CNS = test system: SNB-75 CNS
SR leukemia = test system: SR leukemia
SW-620 colon = test system: SW-620 colon
T-47D breast = test system: T-47D breast
TK-10 renal = test system: TK-10 renal
U251 CNS = test system: U251 CNS
UACC-257 melanoma = test system: UACC-257 melanoma
UACC-62 melanoma = test system: UACC-62 melanoma
UO-31 renal = test system: UO-31 renal

O=C(O[C@H]1CN[C@H](C#Cc2cc3ncnc(Nc4ccc5c(cnn5Cc5ccccc5)c4)c3s2)C1)N1CCOCC1
GI50 (786-0 renal): 7.16 µM | TGI (786-0 renal): > 25 µM | GI50 (A498 renal): 0.998 µM | TGI (A498 renal): 15.3 µM | GI50 (A549 NSCLC): 3.71 µM | TGI (A549 NSCLC): > 25 µM | GI50 (ACHN renal): 0.586 µM | TGI (ACHN renal): > 25 µM | GI50 (BT-549 breast): 3.35 µM | TGI (BT-549 breast): 9.29 µM | GI50 (CAKI-1 renal): 0.602 µM | TGI (CAKI-1 renal): > 11.3 µM | GI50 (CCRF-CEM leukemia): 3.15 µM | TGI (CCRF-CEM leukemia): > 25 µM | GI50 (COLO 205 colon): 3.78 µM | TGI (COLO 205 colon): 8.7 µM | GI50 (DU-145 prostate): 2.16 µM | TGI (DU-145 prostate): > 22.9 µM | GI50 (EKVX NSCLC): 0.234 µM | TGI (EKVX NSCLC): > 11.4 µM | GI50 (HCC-2998 colon): 5 µM | TGI (HCC-2998 colon): > 25 µM | GI50 (HCT-116 colon): 3.74 µM | TGI (HCT-116 colon): > 25 µM | GI50 (HCT-15 colon): 2.37 µM | TGI (HCT-15 colon): > 25 µM | GI50 (HL-60(TB) leukemia): 6.74 µM | TGI (HL-60(TB) leukemia): > 20.4 µM | GI50 (HOP-62 NSCLC): 4.86 µM | TGI (HOP-62 NSCLC): > 25 µM | GI50 (HOP-92 NSCLC): 1.29 µM | TGI (HOP-92 NSCLC): > 25 µM | GI50 (HS 578T breast): 0.78 µM | TGI (HS 578T breast): > 17 µM | GI50 (HT29 colon): 3.92 µM | TGI (HT29 colon): 11.5 µM | GI50 (IGROV1 ovarian): 0.805 µM | TGI (IGROV1 ovarian): > 18.7 µM | GI50 (K-562 leukemia): 6.99 µM | TGI (K-562 leukemia): > 25 µM | GI50 (KM12 colon): 4.63 µM | TGI (KM12 colon): 10.5 µM | GI50 (LOX IMVI melanoma): 5.88 µM | TGI (LOX IMVI melanoma): > 25 µM | GI50 (M14 melanoma): 5.22 µM | TGI (M14 melanoma): > 25 µM | GI50 (MALME-3M melanoma): 4.79 µM | TGI (MALME-3M melanoma): 23.7 µM | GI50 (MCF7 breast): 5.91 µM | TGI (MCF7 breast): > 25 µM | GI50 (MDA-MB-231 breast): 1.8 µM | TGI (MDA-MB-231 breast): > 25 µM | GI50 (MDA-MB-435): 6.08 µM | TGI (MDA-MB-435): > 25 µM | GI50 (MOLT-4 leukemia): 4.22 µM | TGI (MOLT-4 leukemia): > 23.6 µM | GI50 (NCI-H226 lung): 5.37 µM | TGI (NCI-H226 lung): > 25 µM | GI50 (NCI-H23 lung): 11.3 µM | TGI (NCI-H23 lung): > 25 µM | GI50 (NCI-H460 lung): 7.26 µM | TGI (NCI-H460 lung): > 25 µM | GI50 (NCI-H522 lung): 0.195 µM | TGI (NCI-H522 lung): 4.26 µM | GI50 (NCI/ADR-RES ovarian): 9.55 µM | TGI (NCI/ADR-RES ovarian): > 25 µM | GI50 (OVCAR-3 ovarian): 3.1 µM | TGI (OVCAR-3 ovarian): 10.6 µM | GI50 (OVCAR-4 ovarian): 5.3 µM | TGI (OVCAR-4 ovarian): > 25 µM | GI50 (OVCAR-5 ovarian): 1.64 µM | TGI (OVCAR-5 ovarian): > 25 µM | GI50 (OVCAR-8 ovarian): 6.4 µM | TGI (OVCAR-8 ovarian): > 25 µM | GI50 (PC-3 prostate): 7.36 µM | TGI (PC-3 prostate): > 25 µM | GI50 (RPMI-8226 leukemia): 5.38 µM | TGI (RPMI-8226 leukemia): 20.4 µM | GI50 (RXF 393 renal): 1.15 µM | TGI (RXF 393 renal): 11.5 µM | GI50 (SF-268 CNS): 4.43 µM | TGI (SF-268 CNS): 24.5 µM | GI50 (SF-295 CNS): 7.49 µM | TGI (SF-295 CNS): > 25 µM | GI50 (SF-539 CNS): 4.18 µM | TGI (SF-539 CNS): > 19.1 µM | GI50 (SK-MEL-2 melanoma): 4.31 µM | TGI (SK-MEL-2 melanoma): 19.3 µM | GI50 (SK-MEL-28 melanoma): 9.34 µM | TGI (SK-MEL-28 melanoma): > 25 µM | GI50 (SK-MEL-5 melanoma): 6.18 µM | TGI (SK-MEL-5 melanoma): > 25 µM | GI50 (SK-OV-3 ovarian): 0.0182 µM | TGI (SK-OV-3 ovarian): > 12.7 µM | GI50 (SN12C renal): 2.46 µM | TGI (SN12C renal): > 25 µM | GI50 (SNB-19 CNS): 7.71 µM | TGI (SNB-19 CNS): > 25 µM | GI50 (SNB-75 CNS): 2.01 µM | TGI (SNB-75 CNS): > 23 µM | GI50 (SR leukemia): 7.53 µM | TGI (SR leukemia): > 25 µM | GI50 (SW-620 colon): 8.57 µM | TGI (SW-620 colon): > 25 µM | GI50 (T-47D breast): 2.89 µM | TGI (T-47D breast): > 25 µM | GI50 (TK-10 renal): 0.131 µM | TGI (TK-10 renal): 1.83 µM | GI50 (U251 CNS): 6.03 µM | TGI (U251 CNS): > 25 µM | GI50 (UACC-257 melanoma): 7.45 µM | TGI (UACC-257 melanoma): > 25 µM | GI50 (UACC-62 melanoma): 5.74 µM | TGI (UACC-62 melanoma): > 25 µM | GI50 (UO-31 renal): 0.536 µM | TGI (UO-31 renal): 13.3 µM
